Consider 17 compounds from patent US20230075856A1, “CYCLIC SULFAMIDE COMPOUNDS FOR TREATMENT OF HBV” (Assembly Biosciences, Inc., priority 2018, published 2023).

Each structure is given as a SMILES string. Bounds are passed on as bounds.

A word on the EC50: it is the concentration needed to bring the measured effect to its halfway point.

The subject of the first assay is HBV viral load production from HepAD38 cells. The experiment in a line: Viral production from HepAD38 cells: viral load in supernatant by qPCR of the HBV core sequence. In kind it is cell-based. The settings on record: 5 days incubation, qPCR of supernatant HBV DNA vs DMSO control, read-out: viral load lowering EC50 (Activity). An outline of the steps: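 HepAD38 cells seeded at 50,000/well in tetracycline-free medium with 2% FBS, treated with compounds (final top concentration 10 μM) for 5 days at 37 °C. Supernatant HBV DNA quantified by TaqMan qPCR of core sequence against HBV DNA standards, relative to DMSO controls; EC50 by four-parameter logistic fit.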
Background: Real-time PCR tracks product formation cycle by cycle.
`CN1C(C(=O)Nc2ccc(F)c(Cl)c2)CC(C(=O)NCc2nc(C(F)(F)F)cs2)NS1(=O)=O` (single isomer, unassigned) [1202-ISOMER-B, N3-(3-chloro-4-fluoro-phenyl)-2-methyl-1,1-dioxo-N5-[[4-(trifluoromethyl)thiazol-2-yl]methyl]-1,2,6-thiadiazinane-3,5-dicarboxamide]: the EC50 is < 50 nM.
Still for that read-out and setting: in the case of `C[C@@H](NC(=O)C1CC(C(=O)Nc2ccc(F)c(Cl)c2)N(C)S(=O)(=O)N1)c1ccccc1` (single isomer, unassigned) [Compound 719-ISOMER-B] it was 100 to 10000 nM; in that of `CN1C(C(=O)Nc2ccc(F)c(Cl)c2)CC(C(=O)NCc2nc3ccccc3s2)NS1(=O)=O` (single isomer, unassigned) [Compound 689-ISOMER-B, N5-(1,3-benzothiazol-2-ylmethyl)-N3-(3-chloro-4-fluoro-phenyl)-2-methyl-1,1-dioxo-1,2,6-thiadiazinane-3,5-dicarboxamide], < 50 nM.
Consider `CN(C)CC(C)(C)COc1ccc(-c2ncc(CNC(=O)C3CC(C(=O)Nc4ccc(F)c(Cl)c4)N(C)S(=O)(=O)N3)s2)cc1` (single isomer, unassigned) [Compound 943-ISOMER-B, N3-(3-chloro-4-fluoro-phenyl)-N5-[[2-[4-[3-(dimethylamino)-2,2-dimethyl-propoxy]phenyl]thiazol-5-yl]methyl]-2methyl-1,1-dioxo-1,2,6-thiadiazinane-3,5-dicarboxamide], for which the EC50 is 100 to 10000 nM.

The same assay, now with this note: Hepatitis B virus, HePAD38, 120 h, 5 days incubation, qPCR of supernatant HBV DNA vs DMSO control, read-out: viral load lowering EC50 (Activity).
As to `CN1C(C(=O)Nc2ccc(F)c(Cl)c2)CC(C(=O)NCc2cnc(-c3cccnc3)s2)NS1(=O)=O` (single isomer, unassigned) [Compound 911-ISOMER-A, N3-(3-chloro-4-fluoro-phenyl)-2-methyl-1,1-dioxo-N5-[[2-(3-pyridyl)thiazol-5-yl]methyl]-1,2,6-thiadiazinane-3,5-dicarboxamide], the EC50 is 100 to 10000 nM.
On the same count and under the same terms, in the case of `CN1CCC(Oc2ccc(-c3ncc(CNC(=O)C4CC(C(=O)Nc5ccc(F)c(Cl)c5)N(C)S(=O)(=O)N4)s3)cc2)CC1` (single isomer, unassigned) [Compound 979-ISOMER-A, N3-(3-chloro-4-fluoro-phenyl)-2-methyl-N5-[[2-[4-[(1-methyl-4-piperidyl)oxy]phenyl]thiazol-5-yl]methyl]-1,1-dioxo-1,2,6-thiadiazinane-3,5-dicarboxamide] it was 100 to 10000 nM; in that of `CN1C(C(=O)Nc2ccc(F)c(Cl)c2)CC(C(=O)NC2CCN(S(=O)(=O)C(F)(F)F)CC2)NS1(=O)=O` (centres unmarked) [Compound 856], 100 to 10000 nM; in that of `Cc1nc(-c2ccccc2F)sc1CNC(=O)C1CC(C(=O)Nc2ccc(F)c(Cl)c2)N(C)S(=O)(=O)N1` (single isomer, unassigned) [1016-ISOMER-B, N3-(3-chloro-4-fluoro-phenyl)-N5-[[2-(2-fluorophenyl)-4-methyl-thiazol-5-yl]methyl]-2-methyl-1,1-dioxo-1,2,6-thiadiazinane-3,5-dicarboxamide], 50 to 100 nM.
For the compound `Cc1csc(CNC(=O)C2CC(C(=O)Nc3ccc(F)c(C#N)c3)N(C)S(=O)(=O)N2)n1` (centres unmarked) [Compound 828], the EC50 was in the range of 100 to 10000 nM.
With `CN1C(C(=O)Nc2ccc(F)c(Cl)c2)CC(C(=O)NCc2cn(-c3ccccc3)cn2)NS1(=O)=O` (single isomer, unassigned) [1145-ISOMER-A, N3-(3-chloro-4-fluoro-phenyl)-2-methyl-1,1-dioxo-N5-[(1-phenylimidazol-4-yl)methyl]-1,2,6-thiadiazinane-3,5-dicarboxamide], the EC50 is < 50 nM.
As for `CN1C(C(=O)Nc2ccc(F)c(Cl)c2)CC(C(=O)NC2CCCc3nc(-c4ccc(OCCN5CCCCC5)cc4)sc32)NS1(=O)=O` (single isomer, unassigned) [Compound 948-ISOMER-A], the EC50 is < 50 nM.
For `CN1C(C(=O)Nc2ccc(F)c(Cl)c2)CC(C(=O)NCc2ccccc2-n2cccn2)NS1(=O)=O` (centres unmarked) [Compound 909], the EC50 is < 50 nM.
The same measure, in the same setting: as for `Cc1cn(-c2ccc(F)cc2F)nc1CNC(=O)C1CC(C(=O)Nc2ccc(F)c(Cl)c2)N(C)S(=O)(=O)N1` (single isomer, unassigned) [1144-ISOMER-A, N3-(3-chloro-4-fluoro-phenyl)-N5-[[1-(2,4-difluorophenyl)-4-methyl-pyrazol-3-yl]methyl]-2-methyl-1,1-dioxo-1,2,6-thiadiazinane-3,5-dicarboxamide], the figure is < 50 nM; as for `CN1C(C(=O)Nc2ccc(F)c(Cl)c2)CC(C(=O)NCc2ncc(-c3ccc(F)cc3)s2)NS1(=O)=O` (centres unmarked) [Compound 1153], < 50 nM.
In the case of `CN1C(C(=O)Nc2ccc(F)c(Cl)c2)CC(C(=O)NCc2cnc(-c3ccc(C#CCN4CCCCC4)cc3)s2)NS1(=O)=O` (single isomer, unassigned) [Compound 946-ISOMER-A, N3-(3-chloro-4-fluoro-phenyl)-2-methyl-1,1-dioxo-N5-[[2-[4-[3-(1-piperidyl)prop-1-ynyl]phenyl]thiazol-5-yl]methyl]-1,2,6-thiadiazinane-3,5-dicarboxamide], the EC50 is < 50 nM.
Same read-out and setting: in the case of `CN1C(C(=O)Nc2ccc(F)c(Cl)c2)CC(C(=O)NCc2cc(Br)no2)NS1(=O)=O` (centres unmarked) [Compound 980] it was 100 to 10000 nM; in that of `COc1ccnc(N2CCC(NC(=O)C3CC(C(=O)Nc4ccc(F)c(Cl)c4)N(C)S(=O)(=O)N3)CC2)c1` (centres unmarked) [Compound 972], < 50 nM.
